Measured values published in the supplement of paper PMC10307832.

How the values were obtained:
Test in all cases: relative viability (nuclei count vs DMSO), 5 days (fraction); higher = more cells survive
Bicalutamide + Alpelisib = compound: CC(O)(CS(=O)(=O)c1ccc(F)cc1)C(=O)Nc1ccc(C#N)c(C(F)(F)F)c1 [Bicalutamide] + Cc1nc(NC(=O)N2CCC[C@H]2C(N)=O)sc1-c1ccnc(C(C)(C)C(F)(F)F)c1 [Alpelisib] (partner 2 µM)
How it was run: (§1)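 One day after seeding in 1536-well plates, lung cancer cell lines were dosed by pin tool. Dosing was either single-drug or a fixed anchor-drug dose plus five library-drug doses (not always all listed) in √10 steps. After 5 days, nuclei were stained in one fix-and-stain step and counted on 4× images, and relative viability is the nuclei count of treated wells over that of vehicle wells, given as the median of duplicate plates.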

[1] = compound: C(C(=O)C(=O)O)Br [Bromopyruvate] + N=C(N)NC(=N)NCCc1ccccc1 [Phenformin] (partner 250 µM)
How it was run: as §1

[2] = compound: C(C(=O)C(=O)O)Br [Bromopyruvate] + CC1(C)CCC(c2ccc(Cl)cc2)=C(CN2CCN(c3ccc(C(=O)NS(=O)(=O)c4ccc(N[C@H](CCN5CCOCC5)CSc5ccccc5)c(S(=O)(=O)C(F)(F)F)c4)cc3)CC2)C1 [Navitoclax] (partner 0.5 µM)
How it was run: as §1

[3] = compound: CC(O)(CS(=O)(=O)c1ccc(F)cc1)C(=O)Nc1ccc(C#N)c(C(F)(F)F)c1 [Bicalutamide] + CCNC(=O)c1noc(-c2cc(C(C)C)c(O)cc2O)c1-c1ccc(CN2CCOCC2)cc1 [Luminespib] (partner 0.01 µM)
How it was run: as §1

Cell Line | relative viability (Bicalutamide + Alpelisib; first compound 0.08 µM) | relative viability (Bicalutamide + Alpelisib; first compound 0.253 µM) | relative viability (Bicalutamide + Alpelisib; first compound 0.8 µM) | relative viability (Bicalutamide + Alpelisib; first compound 2.53 µM) | relative viability ([1]; first compound 1 µM) | relative viability ([1]; first compound 3.162 µM) | relative viability ([1]; first compound 10 µM) | relative viability ([1]; first compound 31.62 µM) | relative viability ([1]; first compound 100 µM) | relative viability ([2]; first compound 1 µM) | relative viability ([2]; first compound 3.162 µM) | relative viability ([2]; first compound 10 µM) | relative viability ([2]; first compound 31.62 µM) | relative viability ([2]; first compound 100 µM) | relative viability ([3]; first compound 0.08 µM) | relative viability ([3]; first compound 0.253 µM) | relative viability ([3]; first compound 0.8 µM) | relative viability ([3]; first compound 2.53 µM)
HCC-827 | 0.965 | 0.79 | 1.03 | 0.958 | 0.438 | 0.43 | 0.395 | 0.389 | 0.413 | 1.02 | 1 | 0.99 | 1.12 | 0.996 | 0.704 | 0.676 | 1.35 | 0.668
HOP-62 | 1.31 | 0.959 | 1.19 | 1.12 | 0.704 | 0.643 | 0.645 | 0.737 | 0.696 | 1.05 | 0.961 | 1.12 | 1.08 | 0.899 | 0.917 | 1.01 | 1.09 | 0.885
IA-LM | 0.801 | 0.793 | 0.964 | 0.782 | – | – | – | – | – | 0.798 | 0.723 | 0.654 | 0.763 | 0.818 | – | – | – | –
LC-2-ad | 0.99 | 0.921 | 0.852 | 0.894 | 0.564 | 0.621 | 0.576 | 0.599 | 0.525 | 0.436 | 0.404 | 0.35 | 0.459 | 0.476 | 1.1 | 0.954 | 1.03 | 1.06
LCLC-97TM1 | 0.254 | 0.231 | 0.286 | 0.226 | 0.411 | 0.397 | 0.359 | 0.439 | 0.415 | – | – | 0.538 | 0.492 | 0.316 | 0.793 | 0.659 | 0.941 | 0.829
LCLC-103H | 1.04 | 0.907 | 1.1 | 1.02 | 0.343 | 0.338 | 0.371 | 0.362 | 0.365 | – | – | – | – | – | 1.02 | 0.906 | 1.04 | 0.928
LK-2 | 1.21 | 0.878 | 1.44 | 1.16 | 0.411 | 0.673 | 0.432 | 0.57 | 0.496 | 0.9 | 0.85 | 0.818 | 0.888 | 0.772 | 0.161 | 0.167 | 0.175 | 0.21
LOU-NH91 | 0.698 | 0.608 | 0.828 | 0.745 | 0.759 | 0.77 | 0.74 | 0.74 | 0.747 | 0.835 | 0.611 | 0.759 | 0.84 | 0.783 | 0.367 | 0.295 | 0.331 | 0.322
LU99A | 0.625 | 0.447 | 0.603 | 0.402 | 0.751 | 0.753 | 0.89 | 0.921 | 0.794 | 0.767 | 0.696 | 0.834 | 0.558 | 0.411 | 0.268 | 0.236 | 0.286 | 0.205
LXF-289 | 1.04 | 0.952 | 1.08 | 1.03 | 0.525 | 0.537 | 0.516 | 0.504 | 0.531 | 0.983 | 0.987 | 0.898 | 0.99 | 1.02 | 0.667 | 0.6 | 0.637 | 0.694
NCI-H23 | 0.692 | 0.693 | 0.885 | 0.557 | 0.778 | 0.842 | 0.837 | 0.809 | 0.857 | 0.855 | 0.807 | 0.983 | 0.768 | 0.77 | 0.223 | 0.195 | 0.171 | 0.212
NCI-H322M | 0.948 | 0.772 | 0.882 | 0.74 | 0.727 | 0.756 | 0.809 | 0.796 | 0.784 | 1.23 | 1.2 | 1.22 | 1.16 | 1.3 | 0.872 | 0.891 | 1.03 | 1.06
NCI-H358 | 0.808 | 0.904 | 0.936 | 0.992 | 0.406 | 0.327 | 0.351 | 0.304 | 0.315 | – | – | – | – | – | 0.488 | 0.295 | 0.582 | 0.32
NCI-H522 | – | – | – | – | 0.599 | 0.654 | 0.641 | 0.679 | 0.574 | – | – | – | – | – | 1.07 | 1.14 | 1.45 | 1.17
NCI-H650 | 1.34 | 1.04 | 1.35 | 0.814 | 0.532 | 0.45 | 0.414 | 0.462 | 0.47 | – | – | – | – | – | 0.822 | 0.793 | 0.947 | 0.792
NCI-H661 | 0.594 | 0.591 | 0.833 | 0.829 | 0.294 | 0.263 | 0.237 | 0.287 | 0.276 | – | – | – | – | – | 0.938 | 0.94 | 0.928 | 0.954
NCI-H1299 | 1.11 | 1.13 | 1.08 | 1.11 | – | – | – | – | – | 1.04 | 1.07 | 1.03 | 1.03 | 1.02 | – | – | – | –
NCI-H1563 | 0.944 | 0.95 | 0.897 | 0.779 | 0.621 | 0.748 | 0.643 | 0.673 | 0.657 | – | – | – | – | – | 0.529 | 0.552 | 0.567 | 0.515
NCI-H1623 | – | – | – | – | 0.545 | 0.654 | 0.635 | 0.588 | 0.625 | – | – | – | – | – | – | 0.647 | 0.596 | 0.459
NCI-H1650 | – | – | – | – | 0.414 | 0.429 | 0.475 | 0.449 | 0.291 | 1.09 | 1.31 | 1.42 | 1.47 | 1.19 | 0.181 | 0.165 | 0.171 | 0.196
NCI-H1703 | 0.321 | 0.243 | 0.332 | 0.262 | – | – | – | – | – | 1.06 | 1.22 | 1.42 | 1.34 | 1.16 | – | – | – | –
NCI-H2342 | – | – | – | – | 0.574 | 0.645 | 0.613 | 0.479 | 0.488 | – | – | – | – | – | 0.682 | 0.752 | 0.746 | 0.729
SW 900 | – | – | – | – | 0.645 | 0.55 | 0.755 | 0.706 | 0.627 | – | – | – | – | – | 0.175 | 0.153 | 0.172 | 0.17
